Experiments:
Assay in all cases: relative viability (nuclei count vs DMSO), 5 days (fraction); higher = more cells survive
[1] = system: NCI-H1755
Summary of the method: (§1)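 Nuclei were stained with Hoechst during a one-step fixation (final 0.05% Triton X-100, 1% formaldehyde, 1 ug/ml Hoechst) carried out 5 days after dosing, then counted on 4× images. The cells, lung cancer lines in 1536-well plates, had been dosed by pin tool the day after seeding with one drug alone or a fixed anchor-drug dose plus five library-drug doses (not always all listed) in √10 steps. Relative viability is the nuclei count in treated wells divided by that in vehicle wells, and each value is the median of duplicate plates.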

[2] = system: LCLC-103H
Summary of the method: as §1

[3] = system: HCC-366
Summary of the method: as §1

[4] = system: NCI-H460
Summary of the method: as §1

[5] = system: HCC-827
Summary of the method: as §1

[6] = system: HOP-62
Summary of the method: as §1

[7] = system: HARA
Summary of the method: as §1

[8] = system: NCI-H23
Summary of the method: as §1

[9] = system: NCI-H522
Summary of the method: as §1

[10] = system: NCI-H1437
Summary of the method: as §1

[11] = system: NCI-H1395
Summary of the method: as §1

[12] = system: NCI-H2228
Summary of the method: as §1

[13] = system: EMC-BAC-2
Summary of the method: as §1

[14] = system: SK-LU-1
Summary of the method: as §1

[15] = system: NCI-H1792
Summary of the method: as §1

[16] = system: SW 1573
Summary of the method: as §1

[17] = system: CAL-12T
Summary of the method: as §1

[18] = system: COR-L 105
Summary of the method: as §1

[19] = system: NCI-H2009
Summary of the method: as §1

[20] = system: A-427
Summary of the method: as §1

[21] = system: NCI-H1915
Summary of the method: as §1

COc1nc(C)cnc1NS(=O)(=O)c1cccnc1-c1ccc(-c2nnco2)cc1 [Zibotentan] + Nc1nc2[nH]cc(CCc3ccc(C(=O)N[C@@H](CCC(=O)O)C(=O)O)cc3)c2c(=O)[nH]1 [Pemetrexed] (partner 0.2 µM)
relative viability ([1]; first compound 0.08 µM): 0.44
relative viability ([1]; first compound 0.253 µM): 0.453
relative viability ([1]; first compound 0.8 µM): 0.383
relative viability ([1]; first compound 2.53 µM): 0.455
relative viability ([2]; first compound 0.08 µM): 0.428
relative viability ([2]; first compound 0.253 µM): 0.471
relative viability ([2]; first compound 0.8 µM): 0.429
relative viability ([2]; first compound 2.53 µM): 0.533
relative viability ([3]; first compound 0.08 µM): 0.163
relative viability ([3]; first compound 0.253 µM): 0.179
relative viability ([3]; first compound 0.8 µM): 0.0897
relative viability ([3]; first compound 2.53 µM): 0.147
relative viability ([4]; first compound 0.08 µM): 0.0594
relative viability ([4]; first compound 0.253 µM): 0.0676
relative viability ([4]; first compound 0.8 µM): 0.0545
relative viability ([4]; first compound 2.53 µM): 0.0682
relative viability ([5]; first compound 0.08 µM): 0.262
relative viability ([5]; first compound 0.253 µM): 0.272
relative viability ([5]; first compound 0.8 µM): 0.241
relative viability ([5]; first compound 2.53 µM): 0.294
relative viability ([6]; first compound 0.08 µM): 0.319
relative viability ([6]; first compound 0.253 µM): 0.408
relative viability ([6]; first compound 0.8 µM): 0.281
relative viability ([6]; first compound 2.53 µM): 0.352
relative viability ([7]; first compound 0.08 µM): 0.247
relative viability ([7]; first compound 0.8 µM): 0.183
relative viability ([7]; first compound 2.53 µM): 0.292
relative viability ([8]; first compound 0.08 µM): 0.738
relative viability ([8]; first compound 0.253 µM): 0.395
relative viability ([8]; first compound 0.8 µM): 0.456
relative viability ([8]; first compound 2.53 µM): 0.915
relative viability ([9]; first compound 0.08 µM): 0.909
relative viability ([9]; first compound 0.253 µM): 1.03
relative viability ([9]; first compound 0.8 µM): 0.881
relative viability ([9]; first compound 2.53 µM): 0.758
relative viability ([10]; first compound 0.08 µM): 0.35
relative viability ([10]; first compound 0.253 µM): 0.306
relative viability ([10]; first compound 0.8 µM): 0.281
relative viability ([10]; first compound 2.53 µM): 0.32
relative viability ([11]; first compound 0.08 µM): 1.01
relative viability ([11]; first compound 0.253 µM): 0.801
relative viability ([11]; first compound 0.8 µM): 0.81
relative viability ([11]; first compound 2.53 µM): 0.901
relative viability ([12]; first compound 0.08 µM): 0.323
relative viability ([12]; first compound 0.253 µM): 0.33
relative viability ([12]; first compound 0.8 µM): 0.291
relative viability ([12]; first compound 2.53 µM): 0.346
relative viability ([13]; first compound 0.08 µM): 0.457
relative viability ([13]; first compound 0.8 µM): 0.406
relative viability ([13]; first compound 2.53 µM): 0.44
relative viability ([14]; first compound 0.08 µM): 0.95
relative viability ([14]; first compound 0.253 µM): 0.705
relative viability ([14]; first compound 0.8 µM): 1.01
relative viability ([14]; first compound 2.53 µM): 0.99
relative viability ([15]; first compound 0.08 µM): 0.911
relative viability ([15]; first compound 0.253 µM): 0.662
relative viability ([15]; first compound 0.8 µM): 0.813
relative viability ([15]; first compound 2.53 µM): 1.14
relative viability ([16]; first compound 0.08 µM): 0.872
relative viability ([16]; first compound 0.8 µM): 0.783
relative viability ([16]; first compound 2.53 µM): 0.823
relative viability ([17]; first compound 0.08 µM): 1.28
relative viability ([17]; first compound 0.253 µM): 1.06
relative viability ([17]; first compound 0.8 µM): 1.23
relative viability ([17]; first compound 2.53 µM): 1.16
relative viability ([18]; first compound 0.08 µM): 1.08
relative viability ([18]; first compound 0.253 µM): 0.87
relative viability ([18]; first compound 0.8 µM): 1.21
relative viability ([18]; first compound 2.53 µM): 1.05
relative viability ([19]; first compound 0.08 µM): 1.03
relative viability ([19]; first compound 0.253 µM): 1.01
relative viability ([19]; first compound 0.8 µM): 1.01
relative viability ([19]; first compound 2.53 µM): 1.03
relative viability ([20]; first compound 0.08 µM): 1.18
relative viability ([20]; first compound 0.253 µM): 1.01
relative viability ([20]; first compound 0.8 µM): 0.95
relative viability ([20]; first compound 2.53 µM): 1.07
relative viability ([21]; first compound 0.08 µM): 0.477
relative viability ([21]; first compound 0.253 µM): 0.493
relative viability ([21]; first compound 0.8 µM): 0.357
relative viability ([21]; first compound 2.53 µM): 0.526
